The text below walks through data of patent publication US20120328526A1, “Modulation of Nad+ Activity in Neuropathophysiological Conditions and Uses Thereof” (University of Maryland, Baltimore, priority 2011, published 2012).

For experiment [1], the target named is T1, CD38 NAD^+ glycohydrolase (Mus musculus, UniProt P56528).
T1 construct: The individual brain regions were homogenized and centrifuged at low speed to sediment the unbroken cells and the nuclear fraction; from tissue; host or cells: mouse (C57BL/6) brain regions (cortex, striatum, hippocampal CA1, CA3-DG), low-speed supernatant of homogenate
T1 sequence (P56528 1-304): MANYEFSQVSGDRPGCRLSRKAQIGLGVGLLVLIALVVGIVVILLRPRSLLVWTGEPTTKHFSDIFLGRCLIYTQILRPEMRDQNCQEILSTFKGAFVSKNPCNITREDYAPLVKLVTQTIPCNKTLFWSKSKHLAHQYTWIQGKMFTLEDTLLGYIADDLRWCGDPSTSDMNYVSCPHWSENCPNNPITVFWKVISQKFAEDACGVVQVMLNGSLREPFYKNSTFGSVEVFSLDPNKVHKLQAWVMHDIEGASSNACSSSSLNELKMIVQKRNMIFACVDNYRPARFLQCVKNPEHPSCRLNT
The experiment is described as follows: NAD+ glycohydrolase activity (1-etheno-NAD hydrolysis) in brain region homogenates. Conditions: NMN 1 mM; post-ischemic brain subregion supernatant. The experiment is classed as biochemical. On the procedure: FIGS. 3A-3B show the effect of forebrain ischemia and nicotinamide mononucleotide administration on tissue NAD(H) levels. Mice were subjected to 10 min transient forebrain ischemia and allowed to recover for 24 h. After decapitation their brains were removed, the designated regions dissected and frozen in liquid nitrogen. One group of animals received nicotinamide mononucleotide at 1 hour of recovery. The NAD content was determined following perchloric acid extraction and utilized a coupled fluorometric cycling enzymatic assay (FIG. 3A). There is significant loss of NAD^+ in striatum, CA1, and DG regions. *p<0.05. […] Black: sham; white: ischemia; gray: NMN treatment. FIG. 3B: Effect of ischemia on CD38 activity. Brains of sham operated animals or animals subjected to 10 min of forebrain ischemia and 24 h of recovery were used for dissection of designated brain regions and homogenized. The CD38 enzyme activity was determined using 1-etheno-NAD that, when hydrolyzed by CD38, generates a fluorescent product. The rate of fluorescence increase corresponds to the CD38 enzyme activity. […]
Since nicotinamide mononucleotide is inhibiting the CD38 NAD^+ glycohydrolase activity, the activity of CD38 in post-ischemic tissue was assessed. The NAD^+ glycohydrolase activity was measured by monitoring the enhancement in fluorescence emission caused by the hydrolysis of 1-etheno-NAD (eNAD) (9). […]

For experiment [2], the system named is traumatic brain injury mice. In words: Open field test (anti-clockwise/clockwise rotations) after traumatic brain injury. The experiment is classed as in vivo, mouse. Conditions: NMN 500 mg/kg I.P. at 1 hour post-injury; 7 days post-injury; listed as NMN. On the procedure:
FIGS. 9A-9B show traumatic brain injury-induced deficits in sensorimotor function and cognition are ameliorated by nicotinamide mononucleotide treatment. FIG. 9A: Fine motor coordination deficits were quantified using a beam walk test in C57Bl/6 mice subjected to moderate-level traumatic brain injury and treated with nicotinamide mononucleotide (500 mg/kg, I.P.) or equal volume of vehicle at 1 hour post-injury. Hindlimb foot placement was recorded up to 7 days post-injury and the number of foot faults recorded from 50 steps. Naïve C57Bl/6 mice served as a control group. […] Analysis was by repeated measures one-way ANOVA, followed by post-hoc adjustments using Student-Newman-Keuls test. Mean ±S.E.M.; n=5/group. FIG. 9B: Cognitive performance was analyzed by measuring the number of anti-clockwise and clockwise rotations of traumatic brain injury mice in an open field test performed at 7 days post-injury.
The effect of nicotinamide mononucleotide on traumatic brain injury-induced changes in fine motor coordination examined using a beam walking task in which mice were trained to cross an elevated narrow wooden beam. The mouse was placed on the left end of the beam and the number of foot faults for the right hind limb was recorded over 50 steps on the beam. […] Their activity was measured and recorded using the Any-maze video tracking system. […]

“Also recorded” adds a separate entry of the source.

Turning to `NC(=O)c1ccc[n+]([C@@H]2O[C@H](COP(=O)([O-])O)[C@@H](O)[C@H]2O)c1` [nicotinamide mononucleotide], in experiment [1], the “eNAD hydrolysis (NAD+ glycohydrolase activity) in brain tissue homogenate” value is listed as “completely inhibited; also recorded: prevents tissue NAD^+ degradation”. The “cognitive performance: anti-clockwise rotations in open field test” value in experiment [2] is listed as “virtually indistinguishable from the naïve mice; also recorded: reduced anti-clockwise rotations”.
